Laboratory results: US20130040991A1, “PHARMACEUTICAL COMPOSITION COMPRISING GEMFIBROZIL AND CYP2C8 AND/OR OATP SUBSTRATE DRUG SUCH AS REPAGLINIDE” (priority 2010, published 2013)

What was measured:
[1] = Effects of different gemfibrozil doses on plasma profiles of repaglinide, repaglinide dose adjusted to equal AUC; type: in vivo, human; settings: when the ratio of gemfibrozil (0-900 mg) to repaglinide is increased; repaglinide dose adjusted to same AUC
Experimental: The effects of different doses of gemfibrozil (0 mg, 30 mg, 100 mg, 300 mg and 900 mg) on plasma profiles of repaglinide were measured. The doses of repaglinide were adjusted so that the total exposure to repaglinide (defined as the area under plasma repaglinide concentration-time curve, AUC) is the same in all 5 cases, corresponding to the AUC after a single dose of 0.25 mg repaglinide without gemfibrozil.

[2] = biological target: T1, CYP2C8 (Homo sapiens, UniProt P10632); set-up: Estimation of CYP2C8 Half-Life Using Repaglinide as an in Vivo Probe; host or cells: in vivo (subjects of the cited studies); settings: cited from earlier work
T1 sequence (P10632 1-490): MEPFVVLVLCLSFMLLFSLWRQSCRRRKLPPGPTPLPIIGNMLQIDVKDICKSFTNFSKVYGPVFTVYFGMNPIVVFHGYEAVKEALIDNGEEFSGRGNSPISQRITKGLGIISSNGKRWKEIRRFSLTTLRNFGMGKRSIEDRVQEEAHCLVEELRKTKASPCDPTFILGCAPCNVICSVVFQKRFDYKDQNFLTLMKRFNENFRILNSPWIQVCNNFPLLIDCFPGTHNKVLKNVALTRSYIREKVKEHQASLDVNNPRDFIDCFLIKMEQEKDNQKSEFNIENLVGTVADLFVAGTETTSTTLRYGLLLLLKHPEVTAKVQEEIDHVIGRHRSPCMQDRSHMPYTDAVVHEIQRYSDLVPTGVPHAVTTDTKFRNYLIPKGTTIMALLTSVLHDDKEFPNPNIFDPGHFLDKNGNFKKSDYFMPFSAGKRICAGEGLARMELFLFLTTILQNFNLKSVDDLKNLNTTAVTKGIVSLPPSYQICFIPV

[3] = biological target: T1, CYP2C8; set-up: Estimation of CYP2C8 Half-Life Using Repaglinide as an in Vivo Probe; host or cells: in vivo (subjects of the cited studies); settings: gemfibrozil 600 mg twice daily; Tornio et al 2008; cited from earlier work
[4] = biological target: T1, CYP2C8; experiment: Effect of single oral gemfibrozil doses on repaglinide AUC, fitted to a mechanistic model of CYP2C8 inhibition; type: in vivo; set-up: The subjects ingested in a cross-over study a small dose (0.25 mg) of repaglinide with different doses of gemfibrozil; from tissue; host or cells: living human subjects (in vivo)
Experimental: The effect of various oral single doses (30 mg, 100 mg, 300 mg and 900 mg) of gemfibrozil on the total plasma exposure, i.e., area under the plasma concentration-time curve (AUC), of a CYP2C8 and OATP1B1 substrate drug (repaglinide) was measured. The mean fold increase in the AUC (AUCi/AUCc) of repaglinide with the different gemfibrozil doses in six human subjects is given in relation to the mean average plasma concentration of gemfibrozil 1-O-β-glucuronide during 10 hours after gemfirozil dosing (Cavg). The subjects ingested in a cross-over study a small dose (0.25 mg) of repaglinide with different doses of gemfibrozil. Venous blood samples were taken at fixed time points up to 10 hours after gemfibrozil dosing, and plasma repaglinide, gemfibrozil and gemfibrozil 1-O-β-glucuronide concentrations were determined using a validated liquid chromatographic-tandem mass spectrometric (LC/MSMS) method. The data were fitted to the following mechanistic model (equation):

## CCOc1cc(CC(=O)N[C@@H](CC(C)C)c2ccccc2N2CCCCC2)ccc1C(=O)O [repaglinide]
[1]
  elimination half-life (and effect) of repaglinide: prolonged
  estimated peak concentration of repaglinide: reduced

## Cc1ccc(C)c(OCCCC(C)(C)C(=O)O)c1 [gemfibrozil, 5-(2,5-dimethylphenoxy)-2,2-dimethyl-pentanoic acid]
[2]
  inhibitor of CYP2C8 (qualitative): relatively weak inhibitor
[3]
  persistence of the risk of gemfibrozil-related interactions (effect on repaglinide pharmacokinetics) after the dose: at Least 12 hours
[4]; repeated dosing, gemfibrozil doses <30 mg, due to irreversible inhibition of CYP2C8
  effect of small gemfibrozil doses in repeated dosing: increased
[4]; single oral dose of 100 mg gemfibrozil, model-based from fold increase in repaglinide (0.25 mg) AUC, six human subjects
  inhibition of the CYP2C8 enzyme: 90%

## Cc1ccc(C)c(OCCCC(C)(C)C(=O)O[C@@H]2O[C@H](C(=O)O)[C@@H](O)[C@H](O)[C@H]2O)c1 [gemfibrozil 1-O-β-glucuronide]
[2]
  inhibitor of CYP2C8 (qualitative): potent inhibitor and inactivator
